Results reported in ChEMBL document CHEMBL1833797, “Microwave assisted synthesis and antimicrobial evaluation of new fused pyran derivatives bearing 2-morpholinoquinoline nucleus” (2011).
In brackets after ≈: the same amount, converted by molar mass.

Key:
Salmonella typhi = experiment: Antimicrobial activity against Salmonella typhi MTCC 98 for 24 hrs by microdilution method; format: functional, Salmonella enterica subsp. enterica serovar Typhi; conditions: Salmonella enterica, MTCC 98, 24 h
Clostridium tetani = experiment: Antimicrobial activity against Clostridium tetani MTCC 449 for 24 hrs by microdilution method; format: functional; conditions: MTCC 449, 24 h
Escherichia coli = experiment: Antimicrobial activity against Escherichia coli MTCC 443 for 24 hrs by microdilution method; format: functional; conditions: MTCC 443, 24 h
Aspergillus fumigatus = experiment: Antifungal activity against Aspergillus fumigatus MTCC 3008 for 48 hrs by microdilution method; format: functional; conditions: MTCC 3008, 48 h
Candida albicans = experiment: Antifungal activity against Candida albicans MTCC 227 for 48 hrs by microdilution method; format: functional; conditions: MTCC 227, 48 h
Vibrio cholerae = experiment: Antimicrobial activity against Vibrio cholerae MTCC 3906 for 24 hrs by microdilution method; format: functional; conditions: MTCC 3906, 24 h
Streptococcus pneumoniae = experiment: Antimicrobial activity against Streptococcus pneumoniae MTCC 1936 for 24 hrs by microdilution method; format: functional; conditions: MTCC 1936, 24 h
Bacillus subtilis = experiment: Antimicrobial activity against Bacillus subtilis MTCC 441 for 24 hrs by microdilution method; format: functional; conditions: MTCC 441, 24 h

SMILES | MIC (Salmonella typhi) [µg/mL] | MIC (Clostridium tetani) [µg/mL] | MIC (Escherichia coli) [µg/mL] | MIC (Aspergillus fumigatus) [µg/mL] | MIC (Candida albicans) [µg/mL] | MIC (Vibrio cholerae) [µg/mL] | MIC (Streptococcus pneumoniae) [µg/mL] | MIC (Bacillus subtilis) [µg/mL]
N#CC1=C(N)OC2=C(C(=O)c3ccccc3C2=O)C1c1cc2ccccc2nc1N1CCOCC1 (configuration not stated) | 12.5 (≈ 26.9 µM) | 500 (≈ 1080 µM) | 200 (≈ 431 µM) | > 1000 | 100 (≈ 215 µM) | 500 (≈ 1080 µM) | 500 (≈ 1080 µM) | 500 (≈ 1080 µM)
COc1ccc2nc(N3CCOCC3)c(C3C(C#N)=C(N)OC4=C3C(=O)CC(C)(C)C4)cc2c1 (configuration not stated) | 500 (≈ 1090 µM) | 500 (≈ 1090 µM) | 500 (≈ 1090 µM) | 100 (≈ 217 µM) | 1000 (≈ 2170 µM) | 500 (≈ 1090 µM) | 100 (≈ 217 µM) | 100 (≈ 217 µM)
COC1=CC(=O)C[C@@H](C)[C@]12Oc1c(Cl)c(OC)cc(OC)c1C2=O [GRISEOFULVIN] |  |  |  | 100 (≈ 283 µM) | 500 (≈ 1420 µM) |  |  | 
COc1ccc2nc(N3CCOCC3)c(C3C(C#N)=C(N)Oc4c3c(=O)oc3ccccc43)cc2c1 (configuration not stated) | 500 (≈ 1040 µM) | 500 (≈ 1040 µM) | 500 (≈ 1040 µM) | 1000 (≈ 2070 µM) | 200 (≈ 415 µM) | 500 (≈ 1040 µM) | 200 (≈ 415 µM) | 200 (≈ 415 µM)
Cc1ccc2nc(N3CCOCC3)c(C3C(C#N)=C(N)Oc4c3ccc3ccccc43)cc2c1 (configuration not stated) | 250 (≈ 557 µM) | 500 (≈ 1110 µM) | 200 (≈ 446 µM) | 500 (≈ 1110 µM) | > 1000 | 12.5 (≈ 27.9 µM) | 500 (≈ 1110 µM) | 500 (≈ 1110 µM)
COc1ccc2nc(N3CCOCC3)c(C3C(C#N)=C(N)Oc4cc(O)ccc43)cc2c1 (configuration not stated) | 250 (≈ 581 µM) | 250 (≈ 581 µM) | 250 (≈ 581 µM) | 500 (≈ 1160 µM) | 500 (≈ 1160 µM) | 250 (≈ 581 µM) | 12.5 (≈ 29 µM) | 200 (≈ 465 µM)
Cc1ccc2nc(N3CCOCC3)c(C3C(C#N)=C(N)OC4=C3C(=O)CCC4)cc2c1 (configuration not stated) | 200 (≈ 480 µM) | 200 (≈ 480 µM) | 200 (≈ 480 µM) | > 1000 | 1000 (≈ 2400 µM) | 200 (≈ 480 µM) | 100 (≈ 240 µM) | 200 (≈ 480 µM)
COc1ccc2nc(N3CCOCC3)c(C3C(C#N)=C(N)Oc4cc(C)oc(=O)c43)cc2c1 (configuration not stated) | 250 (≈ 560 µM) | 250 (≈ 560 µM) | 200 (≈ 448 µM) | 1000 (≈ 2240 µM) | 250 (≈ 560 µM) | 250 (≈ 560 µM) | 250 (≈ 560 µM) | 200 (≈ 448 µM)
Cc1n[nH]c2c1C(c1cc3ccccc3nc1N1CCOCC1)C(C#N)=C(N)O2 (configuration not stated) | 100 (≈ 257 µM) | 100 (≈ 257 µM) | 62.5 (≈ 161 µM) | 1000 (≈ 2570 µM) | 1000 (≈ 2570 µM) | 200 (≈ 515 µM) | 250 (≈ 644 µM) | 250 (≈ 644 µM)
Cc1ccc2nc(N3CCOCC3)c(C3C(C#N)=C(N)Oc4cc(O)ccc43)cc2c1 (configuration not stated) | 200 (≈ 483 µM) | 200 (≈ 483 µM) | 200 (≈ 483 µM) | > 1000 | > 1000 | 200 (≈ 483 µM) | 500 (≈ 1210 µM) | 500 (≈ 1210 µM)
COc1ccc2nc(N3CCOCC3)c(C3C(C#N)=C(N)OC4=C3C(=O)CCC4)cc2c1 (configuration not stated) | 200 (≈ 462 µM) | 500 (≈ 1160 µM) | 200 (≈ 462 µM) | 1000 (≈ 2310 µM) | 500 (≈ 1160 µM) | 250 (≈ 578 µM) | 250 (≈ 578 µM) | 250 (≈ 578 µM)
CC1(C)S[C@@H]2[C@H](NC(=O)[C@H](N)c3ccccc3)C(=O)N2[C@H]1C(=O)O [AMPICILLIN] | 100 (≈ 286 µM) | 250 (≈ 715 µM) | 100 (≈ 286 µM) |  |  | 100 (≈ 286 µM) | 100 (≈ 286 µM) | 250 (≈ 715 µM)
Cc1cc2c(c(=O)o1)C(c1cc3ccccc3nc1N1CCOCC1)C(C#N)=C(N)O2 (configuration not stated) | 100 (≈ 240 µM) | 100 (≈ 240 µM) | 62.5 (≈ 150 µM) | 200 (≈ 480 µM) | 1000 (≈ 2400 µM) | 100 (≈ 240 µM) | 200 (≈ 480 µM) | 200 (≈ 480 µM)
COc1ccc2nc(N3CCOCC3)c(C3C(C#N)=C(N)Oc4c3ccc3ccccc43)cc2c1 (configuration not stated) | 100 (≈ 215 µM) | 250 (≈ 538 µM) | 200 (≈ 431 µM) | 1000 (≈ 2150 µM) | 100 (≈ 215 µM) | 200 (≈ 431 µM) | 250 (≈ 538 µM) | 250 (≈ 538 µM)
COc1ccc2nc(N3CCOCC3)c(C3C(C#N)=C(N)Oc4[nH]nc(C)c43)cc2c1 (configuration not stated) | 250 (≈ 597 µM) | 250 (≈ 597 µM) | 250 (≈ 597 µM) | 500 (≈ 1190 µM) | 250 (≈ 597 µM) | 250 (≈ 597 µM) | 200 (≈ 478 µM) | 200 (≈ 478 µM)
